Measurements taken from paper PMC11222350, “Preclinical evaluation of [^18F]FP-CIT, the radiotracer targeting dopamine transporter for diagnosing Parkinson’s disease: pharmacokinetic and efficacy analysis” (EJNMMI Research, 2024).

Experiments:
[1] = Biodistribution and pharmacokinetic constants of [^18F]FP-CIT in normal mice; type: in vivo, C57BL/6 mice; settings: for AUC / CL / Cmax / T1/2 / Tmax: normal mice (group I), 3.7 MBq i.v.
Experimental: Male C57BL/6 mice (group I) were anesthetized with 2% isoflurane in oxygen, and 3.7 MBq of [^18F]FP-CIT was intravenously injected via the tail vein. Mice were sacrificed at different time points (1, 5, 10, 30, 60, and 120 min after injection, n = 4 each), and the tissues of interest (blood, muscle, heart, lung, liver, spleen, stomach, intestine, kidney, bone, cerebellum, striatum, and remaining brain tissues) were harvested, weighed, and measured for radioactivity using a gamma counter (Wizard 1480; PerkinElmer, Waltham, MA, USA). The uptake in each tissue sample was expressed as a percentage of the injected dose per gram (%ID/g). The pharmacokinetic constants of [^18F]FP-CIT in normal C57BL/6 mice were calculated from the %ID/g results of its biodistribution.

[2] = target: T1, dopamine transporter (Rattus norvegicus, UniProt P23977); test: Correlation between [^18F]FP-CIT PET uptake and tyrosine hydroxylase IHC; type: in vivo, Sprague–Dawley rats; settings: Pearson
T1 construct: animal PET/CT imaging of [^18F]FP-CIT was performed in the same week following the behavioral tests on the group IV 6-OHDA PD model; from tissue; host or cells: striatum of living Sprague-Dawley rats (in vivo PET/CT)
Experimental: After MR and PET/CT studies, group IV rats were anesthetized with 3.5% isoflurane and fixed by intracardial perfusion with 0.9% saline, followed by 4% paraformaldehyde, replacing the blood in the brain. The brains were extracted and post-fixed in 4% paraformaldehyde overnight at 4 °C. Subsequently, the samples were transferred to 30% sucrose at 4 °C until they sank to the bottom. Cryoprotected brains were embedded in optimal cutting temperature compound (Tissue-Tek; Sakura, Torrance, CA, USA) and sectioned in the coronal plane using a microtome (CM1950; Leica, Wetzlar, Germany) at a thickness of 30 μm. Free-floating brain sections were rinsed with PBS, treated with 3% hydrogen peroxide for 30 min, and then washed with PBS again. Sections were permeabilized with 0.3% Trioton-X-100 for 30 min and washed with PBS. […]
IHC slide imaging was performed using a slide scanner (MoticEasyScan Pro 6; Motic, Kowloon, Hong Kong). The intensity of TH antibody binding was quantified by delineating regions of interest (ROI) for positive lesion and intact sites on the IHC images using ImageJ software. An average of four slides for each brain sample was analyzed. […]
The correlation between [^18F]FP-CIT uptake and TH intensity was assessed, considering absolute values for each lesion and intact site in the striatum. Additionally, lesion/intact ratio values for each study were calculated and analyzed. […]

[3] = test system: dopamine transporter; settings: PET scanning; cited from earlier work
[4] = 1 min post-injection (highest uptake), normal mice

T1 sequence (P23977 whole entry): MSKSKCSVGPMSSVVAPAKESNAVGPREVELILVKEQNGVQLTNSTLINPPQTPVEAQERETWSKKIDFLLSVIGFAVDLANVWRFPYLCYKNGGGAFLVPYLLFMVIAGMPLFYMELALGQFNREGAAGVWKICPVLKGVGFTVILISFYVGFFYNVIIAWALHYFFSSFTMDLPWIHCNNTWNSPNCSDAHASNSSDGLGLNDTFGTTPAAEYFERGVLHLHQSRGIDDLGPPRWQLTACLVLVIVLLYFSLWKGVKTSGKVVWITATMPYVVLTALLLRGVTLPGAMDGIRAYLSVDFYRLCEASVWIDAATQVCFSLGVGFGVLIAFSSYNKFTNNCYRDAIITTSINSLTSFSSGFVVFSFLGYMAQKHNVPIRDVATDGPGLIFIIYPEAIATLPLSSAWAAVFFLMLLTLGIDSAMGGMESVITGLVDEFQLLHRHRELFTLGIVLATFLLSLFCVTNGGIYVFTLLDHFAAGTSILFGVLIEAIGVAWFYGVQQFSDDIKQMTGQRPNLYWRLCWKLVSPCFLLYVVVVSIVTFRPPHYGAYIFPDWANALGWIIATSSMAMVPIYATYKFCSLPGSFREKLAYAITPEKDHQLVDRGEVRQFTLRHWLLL

## COC(=O)[C@H]1[C@@H](c2ccc(I)cc2)C[C@@H]2CC[C@H]1N2CCCF [[^18F]FP-CIT, N-(3-fluoropropyl)-2β-carboxymethoxy-3β-(4-iodophenyl) nortropane]
[1]; [4]
  uptake in cerebellum: 21.42 ± 12.19 %ID/g
  uptake in striatum: 23.50 ± 12.46 %ID/g
  uptake in the rest of the brain: 20.06 ± 12.12 %ID/g
[1]; 60 min after injection (highest uptake), normal mice
  uptake in the liver: 30.82 ± 1.64 %ID/g
[1]; blood
  AUC: 95.43 ± 4.34 %ID*min/g
  CL: 1.05 ± 0.05 cc/min
  Cmax: 2.68 ± 0.12 %ID/g
  T1/2: 11.12 ± 1.83 min
  Tmax: 1.00 ± 0.00 min
[1]; bone
  AUC: 636.73 ± 25.74 %ID*min/g
  CL: 0.16 ± 0.01 cc/min
  Cmax: 9.55 ± 1.48 %ID/g
  T1/2: 114.55 ± 23.62 min
  Tmax: 120.00 ± 0.00 min
[1]; brain, normal mice
  time of maximum concentration: 1 min
[1]; cerebellum
  AUC: 174.48 ± 20.00 %ID*min/g
  CL: 0.58 ± 0.07 cc/min
  Cmax: 10.97 ± 9.59 %ID/g
  T1/2: 17.30 ± 17.89 min
  Tmax: 1.00 ± 0.00 min
[1]; heart
  AUC: 180.65 ± 13.75 %ID*min/g
  CL: 0.56 ± 0.04 cc/min
  Cmax: 7.71 ± 0.74 %ID/g
  T1/2: 62.29 ± 4.86 min
  Tmax: 1.00 ± 0.00 min
[1]; intestine
  AUC: 614.35 ± 28.65 %ID*min/g
  CL: 0.16 ± 0.01 cc/min
  Cmax: 6.00 ± 0.47 %ID/g
  T1/2: 497.98 ± 350.19 min
  Tmax: 19.00 ± 27.58 min
[1]; kidney
  AUC: 680.50 ± 45.28 %ID*min/g
  CL: 0.15 ± 0.01 cc/min
  Cmax: 31.96 ± 5.10 %ID/g
  T1/2: 89.82 ± 11.39 min
  Tmax: 1.00 ± 0.00 min
[1]; liver
  AUC: 3095.50 ± 181.39 %ID*min/g
  CL: 0.03 ± 0.00 cc/min
  T1/2: 26.50 ± 4.4 min
  Tmax: 4.00 ± 2.00 min
[1]; lung
  AUC: 408.70 ± 65.06 %ID*min/g
  CL: 0.25 ± 0.04 cc/min
  Cmax: 21.31 ± 3.18 %ID/g
  T1/2: 79.46 ± 10.66 min
  Tmax: 1.00 ± 0.00 min
[1]; maintained for 120 min after injection, normal mice
  uptake in the intestine: approximately 5 %ID/g
[1]; muscle
  AUC: 150.08 ± 13.03 %ID*min/g
  CL: 0.67 ± 0.06 cc/min
  Cmax: 2.42 ± 0.98 %ID/g
  T1/2: 137.84 ± 198.01 min
  Tmax: 5.00 ± 0.00 min
[1]; rest of the brain
  AUC: 244.03 ± 34.63 %ID*min/g
  CL: 0.42 ± 0.06 cc/min
  Cmax: 17.19 ± 16.17 %ID/g
  T1/2: 55.64 ± 29.71 min
  Tmax: 1.00 ± 0.00 min
[1]; spleen
  AUC: 288.90 ± 39.35 %ID*min/g
  CL: 0.35 ± 0.05 cc/min
  Cmax: 14.52 ± 1.35 %ID/g
  T1/2: 81.36 ± 16.91 min
  Tmax: 3.00 ± 2.31 min
[1]; stomach
  AUC: 444.70 ± 47.17 %ID*min/g
  CL: 0.23 ± 0.02 cc/min
  Cmax: 7.14 ± 1.99 %ID/g
  T1/2: 177.39 ± 36.93 min
  Tmax: 7.50 ± 2.89 min
[1]; striatum
  AUC: 223.30 ± 37.82 %ID*min/g
  CL: 0.46 ± 0.08 cc/min
  T1/2: 39.62 ± 18.71 min
  Tmax: 1.00 ± 0.00 min
[2]; each lesion and intact site in the striatum, n = 12
  correlation coefficient (R) between animal PET/CT uptake and TH intensity by IHC, absolute values: 0.803
[2]; n = 6
  correlation coefficient (R) between animal PET/CT uptake and TH intensity by IHC, lesion/intact ratio values: 0.973
[3]
  time of transient equilibrium in time activity curves (specific binding to the striatum): 60 to 100 min
